The supplement of paper PMC10627819

What was measured:
S. aureus DSM 20231 [1] = test: fitness (endpoint OD595 vs no drug) (fraction); higher = more growth
Method in brief: (§1)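 Fitness is computed from the optical density at which cultures reach stationary phase, divided by the robust mean of no-drug control wells. Any value above 1 is set to 1. Cultures started at OD595 0.01 in 384-well plates with TSB, LB Lennox or CY at 37 °C, and OD595 was read every 30 min for 14 h against a first-reading background.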

S. aureus Newman [2] = test: as above
Method in brief: as §1

S. pneumoniae D39V [3] = test: as above
Method in brief: as §1

B. subtilis 168 [4] = test: Bliss interaction score (quartile over a dose matrix) (fitness difference); higher = more antagonism (negative = synergy)
Method in brief: (§2)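 At entry into stationary phase, OD595 was recorded and divided by the robust mean of the no-drug wells on that plate, with any value above 1 set to 1. This gives the fitness measure used throughout. Single-drug fitness was inferred from combination data, and the Bliss score, observed minus product-expected fitness, is shown as quartiles across technical, biological and donor/recipient replicates.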

S. aureus DSM 20231 [5] = test: as above
Method in brief: as §2

S. aureus Newman [6] = test: as above
Method in brief: as §2

S. pneumoniae D39V [7] = test: as above
Method in brief: as §2

B. subtilis 168 [8] = test: fitness (endpoint OD595 vs no drug) (fraction); higher = more growth
Method in brief: as §1
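Throughout, for Bliss interaction score (quartile over a dose matrix): first quartile when negative (synergy) and third quartile when positive (antagonism).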

CN[C@@H]1[C@H](O)[C@H](NC)[C@H]2O[C@@]3(O)C(=O)C[C@@H](C)O[C@H]3O[C@@H]2[C@H]1O [Spectinomycin] + Cn1nnc(-c2ccc(-c3ccc(N4C[C@H](CO)OC4=O)cc3F)cn2)n1 [Tedizolid]
fitness
Details | first compound 4 µg/mL | first compound 8 µg/mL | first compound 16 µg/mL
S. aureus DSM 20231 [1], partner 0.0625 µg/mL | 0.964 | 0.916 | 0.744
S. aureus DSM 20231 [1], partner 0.125 µg/mL | 0.657 | 0.678 | 0.641
S. aureus DSM 20231 [1], partner 0.25 µg/mL | 0.257 | 0.225 | 0.199
S. aureus Newman [2], partner 0.0625 µg/mL | 0.922 | 0.939 | –
S. pneumoniae D39V [3], partner 0.03125 µg/mL | 0.87 | 0.914 | 0.78
S. pneumoniae D39V [3], partner 0.0625 µg/mL | 0.888 | 0.955 | 0.807
S. pneumoniae D39V [3], partner 0.125 µg/mL | 0.815 | 0.807 | 0.729

fitness, one replicate
Details | partner 0.0625 µg/mL | partner 0.125 µg/mL | partner 0.25 µg/mL | partner 0.5 µg/mL
S. aureus DSM 20231 [1], first compound 32 µg/mL | 0.406 | 0.202 | 0.0234 | –
S. aureus DSM 20231 [1], first compound 64 µg/mL | 0.0239 | 0.0268 | 0.0093 | –
S. aureus Newman [2], first compound 32 µg/mL | 0.101 | 0.0307 | 0.0315 | –
S. aureus Newman [2], first compound 64 µg/mL | 0.0254 | 0.023 | 0.0159 | –
S. pneumoniae D39V [3], first compound 4 µg/mL | – | – | 0.73 | 0.362
S. pneumoniae D39V [3], first compound 8 µg/mL | – | – | 0.724 | 0.416

Details | Bliss interaction score
B. subtilis 168 [4] | -0.0466
S. aureus DSM 20231 [5] | 0.0654
S. aureus Newman [6] | -0.111
S. pneumoniae D39V [7] | -0.0885

CC(=O)NC[C@H]1CN(c2ccc(N3CCOCC3)c(F)c2)C(=O)O1 [Linezolid] + CC1=C\[C@@H](O)CC(=O)Cc2nc(co2)C(=O)N2CCC=C2C(=O)O[C@H](C(C)C)[C@H](C)/C=C/C(=O)NC\C=C\1 [Virginiamycin M1]
one replicate
Details | fitness
B. subtilis 168 [8], first compound 0.0625 µg/mL, partner 0.0625 µg/mL | 0.851
B. subtilis 168 [8], first compound 0.0625 µg/mL, partner 0.125 µg/mL | 0.915
B. subtilis 168 [8], first compound 0.0625 µg/mL, partner 0.25 µg/mL | 0.879
S. aureus DSM 20231 [1], first compound 0.125 µg/mL, partner 0.5 µg/mL | 0.873
S. aureus DSM 20231 [1], first compound 0.125 µg/mL, partner 1 µg/mL | 0.759
S. aureus DSM 20231 [1], first compound 0.25 µg/mL, partner 0.5 µg/mL | 0.675
S. aureus DSM 20231 [1], first compound 0.25 µg/mL, partner 1 µg/mL | 0.63
S. aureus DSM 20231 [1], first compound 0.5 µg/mL, partner 0.5 µg/mL | 0.262
S. aureus DSM 20231 [1], first compound 0.5 µg/mL, partner 1 µg/mL | 0.296
S. aureus DSM 20231 [1], first compound 1 µg/mL, partner 0.0625 µg/mL | 0.0385
S. aureus DSM 20231 [1], first compound 1 µg/mL, partner 0.125 µg/mL | 0.0443
S. aureus DSM 20231 [1], first compound 1 µg/mL, partner 0.25 µg/mL | 0.0419
S. pneumoniae D39V [3], first compound 0.2 µg/mL, partner 0.15 µg/mL | 0.829
S. pneumoniae D39V [3], first compound 0.2 µg/mL, partner 0.3 µg/mL | 0.825
S. pneumoniae D39V [3], first compound 0.2 µg/mL, partner 0.5 µg/mL | 0.861
S. pneumoniae D39V [3], first compound 0.2 µg/mL, partner 1 µg/mL | 0.81
S. pneumoniae D39V [3], first compound 0.4 µg/mL, partner 0.15 µg/mL | 0.738
S. pneumoniae D39V [3], first compound 0.4 µg/mL, partner 0.3 µg/mL | 0.721
S. pneumoniae D39V [3], first compound 0.4 µg/mL, partner 0.5 µg/mL | 0.785
S. pneumoniae D39V [3], first compound 0.4 µg/mL, partner 1 µg/mL | 0.67
S. pneumoniae D39V [3], first compound 0.8 µg/mL, partner 0.15 µg/mL | 0.546
S. pneumoniae D39V [3], first compound 0.8 µg/mL, partner 0.3 µg/mL | 0.577
S. pneumoniae D39V [3], first compound 0.8 µg/mL, partner 0.5 µg/mL | 0.562
S. pneumoniae D39V [3], first compound 0.8 µg/mL, partner 1 µg/mL | 0.376

Details | fitness
B. subtilis 168 [8], first compound 0.125 µg/mL, partner 0.0625 µg/mL | 0.57
B. subtilis 168 [8], first compound 0.125 µg/mL, partner 0.125 µg/mL | 0.572
B. subtilis 168 [8], first compound 0.125 µg/mL, partner 0.25 µg/mL | 0.578
B. subtilis 168 [8], first compound 0.25 µg/mL, partner 0.0625 µg/mL | 0.0596
B. subtilis 168 [8], first compound 0.25 µg/mL, partner 0.125 µg/mL | 0.0652
B. subtilis 168 [8], first compound 0.25 µg/mL, partner 0.25 µg/mL | 0.0843
B. subtilis 168 [8], first compound 0.5 µg/mL, partner 0.0625 µg/mL | 0.0436
B. subtilis 168 [8], first compound 0.5 µg/mL, partner 0.125 µg/mL | 0.0429
B. subtilis 168 [8], first compound 0.5 µg/mL, partner 0.25 µg/mL | 0.0502
S. aureus DSM 20231 [1], first compound 0.125 µg/mL, partner 0.0625 µg/mL | 0.884
S. aureus DSM 20231 [1], first compound 0.125 µg/mL, partner 0.125 µg/mL | 0.951
S. aureus DSM 20231 [1], first compound 0.125 µg/mL, partner 0.25 µg/mL | 0.826
S. aureus DSM 20231 [1], first compound 0.25 µg/mL, partner 0.0625 µg/mL | 0.589
S. aureus DSM 20231 [1], first compound 0.25 µg/mL, partner 0.125 µg/mL | 0.614
S. aureus DSM 20231 [1], first compound 0.25 µg/mL, partner 0.25 µg/mL | 0.638
S. aureus DSM 20231 [1], first compound 0.5 µg/mL, partner 0.0625 µg/mL | 0.186
S. aureus DSM 20231 [1], first compound 0.5 µg/mL, partner 0.125 µg/mL | 0.156
S. aureus DSM 20231 [1], first compound 0.5 µg/mL, partner 0.25 µg/mL | 0.196
S. pneumoniae D39V [3], first compound 0.105 µg/mL, partner 0.5 µg/mL | 0.849
S. pneumoniae D39V [3], first compound 0.105 µg/mL, partner 1 µg/mL | 0.881
S. pneumoniae D39V [3], first compound 0.105 µg/mL, partner 2 µg/mL | 0.856
S. pneumoniae D39V [3], first compound 0.2 µg/mL, partner 2 µg/mL | 0.775
S. pneumoniae D39V [3], first compound 0.21 µg/mL, partner 0.5 µg/mL | 0.763
S. pneumoniae D39V [3], first compound 0.21 µg/mL, partner 1 µg/mL | 0.756
S. pneumoniae D39V [3], first compound 0.21 µg/mL, partner 2 µg/mL | 0.769
S. pneumoniae D39V [3], first compound 0.4 µg/mL, partner 2 µg/mL | 0.677
S. pneumoniae D39V [3], first compound 0.42 µg/mL, partner 0.5 µg/mL | 0.496
S. pneumoniae D39V [3], first compound 0.42 µg/mL, partner 1 µg/mL | 0.486
S. pneumoniae D39V [3], first compound 0.42 µg/mL, partner 2 µg/mL | 0.39
S. pneumoniae D39V [3], first compound 0.8 µg/mL, partner 2 µg/mL | 0.458

Details | Bliss interaction score
B. subtilis 168 [4] | 0.0733
S. aureus DSM 20231 [5] | 0.0505
S. aureus Newman [6] | 0.0286
S. pneumoniae D39V [7] | -0.0638

CC(=O)NC[C@H]1CN(c2ccc(N3CCOCC3)c(F)c2)C(=O)O1 [Linezolid] + CCN(CC)CCOC(=O)c1ccc(N)cc1 [Procaine]
fitness, one replicate
Details | partner 85.5 µg/mL | partner 171 µg/mL | partner 342 µg/mL
B. subtilis 168 [8], first compound 0.0625 µg/mL | 0.828 | 0.846 | 0.858
S. aureus DSM 20231 [1], first compound 1 µg/mL | 0.0561 | 0.0334 | 0.05
S. pneumoniae D39V [3], first compound 0.2 µg/mL | 0.792 | 0.839 | 0.778
S. pneumoniae D39V [3], first compound 0.4 µg/mL | 0.609 | 0.669 | 0.621
S. pneumoniae D39V [3], first compound 0.8 µg/mL | 0.245 | 0.335 | 0.271

fitness
Details | first compound 0.105 µg/mL | first compound 0.125 µg/mL | first compound 0.21 µg/mL | first compound 0.25 µg/mL | first compound 0.42 µg/mL | first compound 0.5 µg/mL
B. subtilis 168 [8], partner 85.5 µg/mL | – | 0.587 | – | 0.101 | – | 0.022
B. subtilis 168 [8], partner 171 µg/mL | – | 0.613 | – | 0.0992 | – | 0.0423
B. subtilis 168 [8], partner 342 µg/mL | – | 0.569 | – | 0.0813 | – | 0.0154
S. aureus DSM 20231 [1], partner 85.5 µg/mL | – | 0.839 | – | 0.574 | – | 0.15
S. aureus DSM 20231 [1], partner 171 µg/mL | – | 0.832 | – | 0.643 | – | 0.193
S. aureus DSM 20231 [1], partner 342 µg/mL | – | 0.768 | – | 0.582 | – | 0.143
S. pneumoniae D39V [3], partner 85.5 µg/mL | 0.824 | – | 0.728 | – | 0.579 | –
S. pneumoniae D39V [3], partner 171 µg/mL | 0.816 | – | 0.719 | – | 0.569 | –
S. pneumoniae D39V [3], partner 342 µg/mL | 0.801 | – | 0.699 | – | 0.535 | –

Details | Bliss interaction score
B. subtilis 168 [4] | 0.0668
S. aureus DSM 20231 [5] | -0.0676
S. aureus Newman [6] | 0.111
S. pneumoniae D39V [7] | 0.0684
